According to article PMC5992921, “The effect of different divalent cations on the kinetics and fidelity of Bacillus stearothermophilus DNA polymerase” (AIMS biophysics, 2018):

Molecular target: T1, BST pol (Bacillus stearothermophilus DNA polymerase) (Geobacillus stearothermophilus, UniProt P52026)
T1 construct: gene polA
T1 sequence (P52026 297-876 limits assumed): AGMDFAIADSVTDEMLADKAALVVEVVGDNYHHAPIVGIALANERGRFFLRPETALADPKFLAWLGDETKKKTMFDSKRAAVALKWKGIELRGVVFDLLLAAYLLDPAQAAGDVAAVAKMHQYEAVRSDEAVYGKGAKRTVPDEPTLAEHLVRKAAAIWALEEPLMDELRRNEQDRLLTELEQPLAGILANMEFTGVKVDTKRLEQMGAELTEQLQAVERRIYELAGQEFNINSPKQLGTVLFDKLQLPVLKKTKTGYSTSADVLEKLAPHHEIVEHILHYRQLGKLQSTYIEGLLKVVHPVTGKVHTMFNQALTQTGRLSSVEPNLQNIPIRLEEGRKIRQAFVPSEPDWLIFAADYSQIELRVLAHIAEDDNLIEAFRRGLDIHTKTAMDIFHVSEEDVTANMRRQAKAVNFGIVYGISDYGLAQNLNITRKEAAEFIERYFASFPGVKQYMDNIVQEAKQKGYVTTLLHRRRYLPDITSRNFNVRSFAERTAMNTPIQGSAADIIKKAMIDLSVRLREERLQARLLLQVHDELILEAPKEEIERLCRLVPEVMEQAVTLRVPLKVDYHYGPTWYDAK
Assay: equilibrium 2-aminopurine fluorescence quenching titration
Assay type: binding
Details: read-out: Kd,g

## Nc1ccn([C@H]2C[C@H](O)[C@@H](COP(=O)(O)OP(=O)(O)OP(=O)(O)O)O2)c(=O)n1 [dCTP]
  Kd: 1.46 ± 0.13 mM
